Values after ≈ are worked out from the molar mass of the structure shown.
Columns and labels:
[1] = Feed solubility in ethanol (preparative chiral separation); type: physicochemical; details: organic solvent or mixture, with stirring and heating
Procedure: The feed solution was filtered through a 0.2 μm filter before use. The enantiomers were separated using a CHIRALPAK®AD® column (CHIRAL Technologies Inc., 20 μm particle size of amylose tris(3,5-dimethylphenylcarbamate) polysaccharide CHIRALPAK®AD® stationary phase, 5 cm internal diameter, 50 cm length at 25° C. and flow rate of 110 mL/min) with injection volume of 65 mL every 11 min. The fractions collected from the chromatographic process for each of the two chromatographic eluting peaks were concentrated using a a 20 L rotary evaporator at 40° C. and 50 mbar. After solvent removal, the products were dried to constant weight in a vacuum oven at 40° C. The target eutomer (+)-N-[2-(6-Bromo-2H-pyrazolo[4,3-b]pyridin-2-yl)-1-cyano-1-methylethyl]-4-trifluoromethoxybenzamide was isolated from the first eluting peak with a recovery yield of 89.0% (19.3 g). […] The distomer (−)-N-[2-(6-Bromo-2H-pyrazolo[4,3-b]pyridin-2-yl)-1-cyano-1-methylethyl]-4-trifluoromethoxybenzamide was isolated from the second eluting peak with a recovery yield of 94.5% (20.5 g). The percent enantiomeric excess of the distomer is 98.8% as measured via analytical chiral HPLC using a CHIRALPAK®AD® column (CHIRAL Technologies Inc., 4.6×250 mm, at 30° C., flow rate of 0.7 mL/min of EtOH mobile phase, retention time=12.5 min).

Haemonchus contortus [2] = assay: Method B: activity against Haemonchus contortus in vivo in Mongolian gerbil; design: species or system Mongolian gerbil (Meriones unguiculatus); details: po, 72 h, oral gavage, read-out: reduction in nematode infection
Procedure: Method B: Screening Method to Test Activity of Compounds Against Haemonchus contortus In Vivo in Mongolian Gerbil (Meriones unguiculatus).
Mongolian gerbils, at least five weeks old, were immunosuppressed and artificially infected with ca. 1000 ensheathed Haemonchus contortus third instar larvae. Six days after infection, the Mongolian gerbils were treated by oral gavage with the test compounds, dissolved in a mixture of 2 parts DMSO and 1 part polyethylene glycol (PEG400), at doses of 100 mg/kg and dissolved in pure polyethylene glycol (PEG400) at doses of 10 and 1 mg/kg. Mongolian gerbils treated only with the placebo (2 parts DMSO and 1 part PEG400 or pure PEG400) served as controls. On day 9 (3 days after treatment) the jirds were euthanized and necropsied for recovery of parasites from the stomach. Efficacy was calculated as the average % reduction in the number of worms in each test group compared with the average number of worms from the control group. […] Compound numbers 1.001, 1.008, 1.012, 1.013 and 1.014 provided at least 95% reduction in nematode in Mongolian gerbils treated by oral gavage with test article at a dose of 100 mg/kg. Compound numbers 1.012, 1.033, 1.064, 2.008, 2.037, 2.038, 2.040, 2.041, 3.001 provided at least 95% reduction in nematode infection at a dose of 10 mg/kg. Compound numbers 1.094, 1.096, 2.048, 3.001, 3.007 and 3.009, provided at least 95% reduction in nematode infection at a dose of 1 mg/kg. Compound numbers 3.006, 3.017 and 3.019 provided at least 95% reduction in nematode infection at a dose of 0.5 mg/kg. Compound numbers 3.005, 3.011 and 3.012 provided at least 95% reduction in nematode infection at a dose of 0.3 mg/kg. The eutomer compound number 3.024 provided at least 95% reduction in nematode infection at a dose of 0.1 mg/kg.

Haemonchus placei = assay: Method H: cattle in vivo, Haemonchus placei
Source text: (§1) Method H: Screening Method to Test Activity of Compounds Against Haemonchus placei, Ostertagia ostertagi, Trichostrongylus axei, Cooperia punctata, Bunostomum phlebotomum, Oesophagostomum radiatum, Dictyocaulus viviparus, and Nematodirus helvetianus In Vivo in Cattle.
(§2) Calves were challenged intra-aurally with larvae from Bunostomum phlebotomum (500-1000 L3 per animal) on Dat −56; and orally with larvae from Oesophagostomum radiatum (1,000-2,000 infective L3 per animal) on Dat −49, Nematodirus helvetianus (3,000-6,000 infective L3 per animal) on Dat −28, Haemonchus placei (5,000-7,000 infective L3 per animal) on Dat −28, Dictyocaulus viviparus (1,000-2,000 infective L3 per animal) on Dat −28, Ostertagia ostertagi (10,000-20,000 infective L3 per animal) on Dat −21, Trichostrongylus axei (10,000-20,000 infective L3 per animal) on Dat −21, Cooperia punctata (10,000-20,000 infective L3 per animal) on Dat −28, and Cooperia oncophora (10,000-20,000 infective L3 per animal) on Dat −21. The test compound was administered alone at a dose of 3 or 6 mg/kg orally or subcutaneously or subcutaneously at a dose of 6 mg/kg in combination with ivermectin at a dose of 50 mcg/kg. For oral administration, test compounds were formulated at a concentration of 10 mg/mL in DMSO/Corn oil (1:1). For subcutaneous administration, test compounds were formulated in propylene glycol/glycerol formal (60:40). All treatments were administered at Day 0. At necropsy on Day 14/15, the abomasa, small intestine and large intestine were removed and processed for parasite recovery. Nematode counts were conducted on appropriate aliquots. Efficacy was calculated for each nematode species by calculating the percent efficacy as 100[(C−T)/C], where C is the mean count among untreated controls and T is the count of the treated animals. Compound number 3.024 provided >95% efficacy against Haemonchus placei, Ostertagia ostertagi, Trichostrongylus axei, Cooperia punctata, Oesophagostomum radiatum and Nematodirus helvetianus at a dose as low as 3 mg/kg administered orally. […]

Nematodirus helvetianus = assay: Method H: cattle in vivo, Nematodirus helvetianus
Source text: as §1, §2

[3] = tested on: ivermectin-resistant Haemonchus contortus; assay: Method I: sheep in vivo, ivermectin-resistant Haemonchus contortus
Source text: (§3) Method I: Screening Method to Test Activity of Compounds Against Ivermectin-Resistant Haemonchus contortus, Ostertagia circumcincta, and Trichostrongylus colubriformis In Vivo in Sheep.
(§4) Sheep were challenged orally with infective 3rd stage larvae (L3) of Ostertagia circumcincta (˜3,000-6,000 infective L3 per animal) on Dat −28, Haemonchus contortus (˜2,000-4,000 infective L3 per animal) on Dat −25, and Trichostrongylus colubriformis (˜3,000-6,000 infective L3 per species per animal) on Dat −23. The inoculation schedule was designed so that nematodes were expected to be in the adult stage on Day 0. Test compounds were dissolved in a mixture of DMSO/Corn oil (1:1) at a concentration of 10 mg/mL. All treatments were administered orally once on Day 0. At sacrifice on Day 14 the abomasum, small intestine and large intestine (including cecum) were removed. Nematode counts were conducted on 10% (abomasal and small intestinal content, abomasal soak) or 20% aliquots (large intestinal content). All nematodes were speciated, or assigned to species based on location of recovery (adult females, fourth-stage larvae) for a total count per species. Efficacy was calculated as the % reduction in the mean number of worms in each test group compared with the mean number of worms recovered from the control group. […]

[4] = tested on: ivermectin-resistant Trichostrongylus columbriformis; assay: Method I: sheep in vivo, ivermectin-resistant Trichostrongylus colubriformis
Source text: as §3, §4

[5] = tested on: ivermectin-resistant Ostertagia circumcincta; assay: Method I: sheep in vivo, ivermectin-resistant Ostertagia circumcincta
Source text: as §3, §4

Toxocara cati = assay: Method G: anthelmintic efficacy against induced infections of adult nematodes in cats, Toxocara cati; type: in vivo; details: oral, once, doses as low as 1 mg/kg
Procedure: (§5) Method G: Evaluation of Anthelmintic Efficacy Against Induced Infections of Adult Nematodes in Cats
(§6) Cats were inoculated on three consecutive days with an aliquot of infective eggs of Toxocara cati (days −63, −62, −61) and Ancylostoma tubaeforme (days −28, −27, −26) from one bulk solution each. The inoculation schedule was designed such that nematodes were adult on day 0. The approximate number of infective eggs/larvae given was recorded. Fecal samples were collected between day −7 and day −1 and examined to confirm the presence of infections, and are reported as eggs/gram of feces. Each formulation was orally administered once on day 0. On day 8, the cats were humanely euthanized. The stomach, cecum, small and large intestines were removed and the total content was retained for parasite recovery. Parasites were collected and identified. Efficacy was determined for each nematode species by calculating the percent efficacy as 100[(C−T)/C], where C is the mean count among untreated controls and T is the count of the treated animals.

Haemonchus contortus [6] = assay: Method A: screening of activity against Haemonchus contortus L1 larvae in microtitre plate (development to L3 / motility)
Source text: Method A: Screening Method to Test Activity of Compounds Against Haemonchus contortus.

Ancylostoma tubaeforme = assay: Method G: anthelmintic efficacy against induced infections of adult nematodes in cats, Ancylostoma tubaeforme; type: in vivo; details: oral, once, doses as low as 1 mg/kg
Procedure: as §5, §6

Oesophagostomum radiatum = assay: Method H: cattle in vivo, Oesophagostomum radiatum; details: compound alone, dose as low as 3 mg/kg administered orally
Source text: as §1
(§7) Calves were challenged intra-aurally with larvae from Bunostomum phlebotomum (500-1000 L3 per animal) on Dat −56; and orally with larvae from Oesophagostomum radiatum (1,000-2,000 infective L3 per animal) on Dat −49, Nematodirus helvetianus (3,000-6,000 infective L3 per animal) on Dat −28, Haemonchus placei (5,000-7,000 infective L3 per animal) on Dat −28, Dictyocaulus viviparus (1,000-2,000 infective L3 per animal) on Dat −28, Ostertagia ostertagi (10,000-20,000 infective L3 per animal) on Dat −21, Trichostrongylus axei (10,000-20,000 infective L3 per animal) on Dat −21, Cooperia punctata (10,000-20,000 infective L3 per animal) on Dat −28, and Cooperia oncophora (10,000-20,000 infective L3 per animal) on Dat −21. The test compound was administered alone at a dose of 3 or 6 mg/kg orally or subcutaneously or subcutaneously at a dose of 6 mg/kg in combination with ivermectin at a dose of 50 mcg/kg. […] Efficacy was calculated for each nematode species by calculating the percent efficacy as 100[(C−T)/C], where C is the mean count among untreated controls and T is the count of the treated animals. […]

Cooperia punctata = assay: Method H: cattle in vivo, Cooperia punctata; details: compound alone, dose as low as 3 mg/kg administered orally
Source text: as §1, §7

[7] = tested on: Ivermectin-Resistant Haemonchus contortus, Ostertagia circumcincta, and Trichostrongylus colubriformis; assay: Method I: activity against ivermectin-resistant nematodes in vivo in sheep (all species tested); details: oral, once, doses as low as 1.5 mg/kg
Source text: as §3, §4

Caenorhabditis elegans = assay: Inhibition of the motility of Caenorhabditis elegans
Ostertagia ostertagi = assay: Method H: cattle in vivo, Ostertagia ostertagi; details: compound alone, dose as low as 3 mg/kg administered orally
Source text: as §1, §7

Trichostrongylus axei = assay: Method H: cattle in vivo, Trichostrongylus axei; details: compound alone, dose as low as 3 mg/kg administered orally
Source text: as §1, §7

[8] = ivermectin alone, 0.2 mg/kg (200 μg/kg) subcutaneously
[9] = compound alone, dose as low as 3 mg/kg administered orally
[10] = subcutaneous, 6 mg/kg in combination with ivermectin 50 μg/kg (0.05 mg/kg)

CC(C#N)(Cn1cc2ncc(Br)cc2n1)NC(=O)c1ccc(OC(F)(F)F)cc1 (stereo not shown) [Compound 3.011, N-[2-(6-Bromo-2H-pyrazolo[4,3-b]pyridin-2-yl)-1-cyano-1-methylethyl]-4-trifluoromethoxybenzamide] showed a solubility [1] of 8600 µg/mL (≈ 18.4 mM) and an inhibition in vivo at 0.3 mg/kg (Haemonchus contortus [2]; dose 0.3 mg/kg) of no less than 95%.
In the case of ivermectin [reference compound], the “efficacy against Haemonchus placei (ivermectin-resistant strain)” value (Haemonchus placei; [8]) is reported as “less than 70%”, the “efficacy against Nematodirus helvetianus” value (Nematodirus helvetianus; [8]) is reported as “less than 30%” and the “activity against ivermectin-resistant Haemonchus contortus” value ([3]; ivermectin orally at 0.2 mg/kg) is reported as “almost completely inactive”. For the same compound, the “efficacy against ivermectin-resistant Trichostrongylus columbriformis” value ([4]; ivermectin orally at 0.2 mg/kg) was “less than 60%” and the “efficacy against ivermectin-resistant Ostertagia circumcincta” value ([5]; ivermectin orally at 0.2 mg/kg) was “less than 30%”.
For C[C@](C#N)(Cn1cc2ncc(Br)cc2n1)NC(=O)c1ccc(OC(F)(F)F)cc1 [Compound 3.024, (+)-N-[2-(6-Bromo-2H-pyrazolo[4,3-b]pyridin-2-yl)-1-cyano-1-methylethyl]-4-trifluoromethoxybenzamide], the “efficacy against Haemonchus placei” value (Haemonchus placei; [9]) was greater than 95%, the “efficacy against Haemonchus placei (ivermectin-resistant strain)” value (Haemonchus placei; [10]) was “greater than 95%” and the “efficacy against Toxocara cati” value (Toxocara cati) was greater than 94%. For the same compound, the inhibition at 0.0025 ppm (Haemonchus contortus [6]; Haemonchus contortus, 96 h, test concentration 0.0025 ppm, 4 days assessment) was no less than 90%, the “potency at inhibiting the motility of Haemonchus contortus larvae, eutomer relative to distomer” value (Haemonchus contortus [6]; relative to the distomer (compound 3.025)) was “greater than 100 times” and the “efficacy against Nematodirus helvetianus” value (Nematodirus helvetianus; [9]) was greater than 95%. For the same compound, the “efficacy against Nematodirus helvetianus” value (Nematodirus helvetianus; [10]) was “greater than 95%”, the “efficacy against ivermectin-resistant Haemonchus contortus” value ([3]; 1.5 mg/kg or 3 mg/kg orally) was “greater than 95%” and the “efficacy against Ancylostoma tubaeforme” value (Ancylostoma tubaeforme) was greater than 94%. The “efficacy against Oesophagostomum radiatum” value (Oesophagostomum radiatum) was greater than 95%, the inhibition in vivo at 0.1 mg/kg (Haemonchus contortus [2]; dose 0.1 mg/kg) was no less than 95% and the “efficacy against Cooperia punctata” value (Cooperia punctata) was greater than 95%. For the same compound, the “efficacy against all species of the nematodes tested (ivermectin-resistant)” value [7] was greater than 95%, the “potency at inhibiting the motility of Caenorhabditis elegans, relative to compound 3.025” value (Caenorhabditis elegans) was “greater than 100 times” and the “efficacy against Ostertagia ostertagi” value (Ostertagia ostertagi) was greater than 95%. For the same compound, the “efficacy against ivermectin-resistant Trichostrongylus columbriformis” value ([4]; 1.5 mg/kg or 3 mg/kg orally) was “greater than 95%”, the “efficacy against ivermectin-resistant Ostertagia circumcincta” value ([5]; 1.5 mg/kg or 3 mg/kg orally) was “greater than 95%” and the “efficacy against Trichostrongylus axei” value (Trichostrongylus axei) was greater than 95%.
